Source: ChEMBL document CHEMBL5346922, “Discovery of phenylcarbamoyl xanthone derivatives as potent neuroprotective agents for treating ischemic stroke” (Eur J Med Chem, 2023)
Activity calls are given as the source filed them. The calls are words filed in the database; no cut-off is given here.

What was measured:
PC-12 [1] = experiment: Neuroprotective activity in rat PC12 cells assessed as protection against glutamate induced excitotoxicity at 20 uM pretreated with glutamate for 24 hrs followed by compound addition and measured after 24 hrs; format: functional
PC-12 [2] = experiment: Neuroprotective activity against H2O2-induced oxidative damage in rat PC12 cells assessed as increase in cell survival at 20 uM pretreated with H2O2 for 24 hrs followed by compound addition and measured after 24 hrs; format: functional; conditions: read-out: Survival
PC-12 [3] = experiment: Neuroprotective activity against glutamate induced excitotoxicity in rat PC12 cells assessed as cell survival at 20 uM pretreated with glutamate for 24 hrs followed by compound addition and measured after 24 hrs; format: functional; conditions: read-out: Survival
PC-12 [4] = experiment: Neuroprotective activity against H2O2-induced oxidative damage in rat PC12 cells at 20 uM pretreated with H2O2 for 24 hrs followed by compound addition and measured after 24 hrs; format: functional
PC-12 [5] = experiment: Neuroprotective activity against H2O2-induced oxidative damage in rat PC12 cells pretreated with H2O2 for 24 hrs followed by compound addition and measured after 24 hrs; format: functional, cell-based
PC-12 [6] = experiment: Neuroprotective activity against glutamate induced excitotoxicity in rat PC12 cells pretreated with glutamate for 24 hrs followed by compound addition and measured after 24 hrs; format: functional, cell-based
PC-12 [7] = experiment: Neuroprotective activity in rat PC12 cells assessed as protection against glutamate induced excitotoxicity at 160 uM pretreated with glutamate for 24 hrs followed by compound addition and measured after 24 hrs; format: functional
PC-12 [8] = experiment: Neuroprotective activity against glutamate induced excitotoxicity in rat PC12 cells assessed as cell survival at 160 uM pretreated with glutamate for 24 hrs followed by compound addition and measured after 24 hrs; format: functional; conditions: read-out: Survival
PC-12 [9] = experiment: Cytotoxicity against rat PC12 cells assessed as reduction in cell viability at 80 uM incubated for 24 hrs by MTT assay; format: functional
PC-12 [10] = experiment: Cytotoxicity against rat PC12 cells assessed as reduction in cell viability incubated for 24 hrs by MTT assay; format: functional, cell-based
PC-12 [11] = experiment: Neuroprotective activity against glutamate induced excitotoxicity in rat PC12 cells assessed as cell survival at 25 uM pretreated with glutamate for 24 hrs followed by compound addition and measured after 24 hrs; format: functional; conditions: read-out: Survival
Rattus norvegicus [12] = experiment: Neuroprotective activity against middle cerebral artery occlusion induced ischemia stroke Sprague-Dawley rat model assessed as decrease in cerebral infarction area at 60 mg/kg, ip measured after 24 hrs by TTC staining based microscopic assay (reference value: 15.91 +/- 9.06 %); format: functional; parameters: scale not given: the % may be the effect or the level left
Rattus norvegicus [13] = experiment: Neuroprotective activity against middle cerebral artery occlusion induced ischemia stroke Sprague-Dawley rat model assessed as decrease in brain water content at 60 mg/kg, ip measured after 24 hrs (reference value: 83.17 +/- 2.40%); format: functional; parameters: scale not given: the % may be the effect or the level left
Rattus norvegicus [14] = experiment: Neuroprotective activity against middle cerebral artery occlusion induced ischemia stroke Sprague-Dawley rat model assessed as Zea-longa score at 20 mg/kg, po measured after 24 hrs (reference value: 2.17+/- 0.37); format: functional

SMILES | Activity (PC-12 [1]) [%] | viability at 20 µM (PC-12 [2]) [%] | viability at 20 µM (PC-12 [3]) [%] | Activity (PC-12 [4]) [%] | further results
COc1c(OC(=O)N(C)c2ccc(C)cc2)cc2oc3cc4c(c(O)c3c(=O)c2c1CC=C(C)C)C=CC(C)(C)O4 | 29.08 | 63 | 50.7 | 17.03 | 
COc1c(OC(=O)N(CC2CC2)c2cccc(C)c2)cc2oc3cc4c(c(O)c3c(=O)c2c1CC=C(C)C)C=CC(C)(C)O4 | 35.08 | 73 | 54.9 | 39.49 | 
COc1c(OC(=O)N(CC2CC2)c2cccc(Cl)c2)cc2oc3cc4c(c(O)c3c(=O)c2c1CC=C(C)C)C=CC(C)(C)O4 | 46.68 | 75.9 | 62.9 | 45.94 | EC50 (PC-12 [5]): 26.2 µM
COc1c(OC(=O)N(CC2CC2)c2ccccc2C)cc2oc3cc4c(c(O)c3c(=O)c2c1CC=C(C)C)C=CC(C)(C)O4 | 0 | 60.6 | 30.5 | 11.7 | 
COc1c(OC(=O)N(C)c2ccccc2C)cc2oc3cc4c(c(O)c3c(=O)c2c1CC=C(C)C)C=CC(C)(C)O4 | 36.26 | 66.8 | 55.7 | 25.55 | 
CC1=NN(c2ccccc2)C(=O)C1 [EDARAVONE] |  | 80.5 |  | 56.36 | 
COc1c(OC(=O)N(CC2CC2)c2cccc(Br)c2)cc2oc3cc4c(c(O)c3c(=O)c2c1CC=C(C)C)C=CC(C)(C)O4 | 23.09 | 63.2 | 46.5 | 17.48 | 
COc1c(OC(=O)N(C)c2ccccc2)cc2oc3cc4c(c(OC)c3c(=O)c2c1CC=C(C)C)C=CC(C)(C)O4 | 46.32 | 70.9 | 62.7 | 34.72 | 
CCc1ccccc1N(C)C(=O)Oc1cc2oc3cc4c(c(O)c3c(=O)c2c(CC=C(C)C)c1OC)C=CC(C)(C)O4 | 35.36 | 63.1 | 55.1 | 17.35 | 
COc1c(OC(=O)N(C)c2ccc(C)cc2)cc2oc3cc4c(c(OC)c3c(=O)c2c1CC=C(C)C)C=CC(C)(C)O4 | 26.81 | 70.2 | 49.1 | 33.3 | 
COc1c(OC(=O)N(C)c2cccc(Cl)c2)cc2oc3cc4c(c(O)c3c(=O)c2c1CC=C(C)C)C=CC(C)(C)O4 | 1.57 | 58.2 | 31.6 | 6.23 | 
COc1c(OC(=O)N(C)c2ccccc2F)cc2oc3cc4c(c(O)c3c(=O)c2c1CC=C(C)C)C=CC(C)(C)O4 | 43.78 | 70.9 | 60.9 | 34.69 | 
COc1c(OC(=O)N(C)c2cccc(C)c2)cc2oc3cc4c(c(OC)c3c(=O)c2c1CC=C(C)C)C=CC(C)(C)O4 | 38.81 | 62.3 | 57.5 | 15.51 | 
COc1c(OC(=O)N(C)c2cccc(F)c2)cc2oc3cc4c(c(O)c3c(=O)c2c1CC=C(C)C)C=CC(C)(C)O4 | 53.62 | 60.9 | 67.8 | 12.46 | EC50 (PC-12 [6]): 19.7 µM
CC12CC3CC(C)(C1)CC(N)(C3)C2 [MEMANTINE] |  |  |  |  | Activity (PC-12 [7]): 46.85%; viability at 160 µM (PC-12 [8]): 63%
COc1c(OC(=O)N(C)c2ccccc2C)cc2oc3cc4c(c(OC)c3c(=O)c2c1CC=C(C)C)C=CC(C)(C)O4 | 31.44 | 69.3 | 52.3 | 31.11 | 
COc1c(OC(=O)N(C)c2ccc(C(C)(C)C)cc2)cc2oc3cc4c(c(O)c3c(=O)c2c1CC=C(C)C)C=CC(C)(C)O4 | 12.14 | 63.6 | 38.9 | 18.35 | 
COc1c(OC(=O)N(C)c2ccccc2)cc2oc3c(CN(C)C)c4c(c(O)c3c(=O)c2c1CC=C(C)C)C=CC(C)(C)O4 |  |  |  |  | Activity (PC-12 [9]): 90%; IC50 (PC-12 [10]; PC-12, 24 h): 5 µM
N[C@@H](CCC(=O)O)C(=O)O [GLUTAMIC ACID] |  |  |  |  | viability at 25 µM (PC-12 [11]): 30.5%

SMILES | Activity (PC-12 [1]) [%] | viability at 20 µM (PC-12 [2]) [%] | viability at 20 µM (PC-12 [3]) [%] | Activity (PC-12 [4]) [%] | further results
CCOc1cccc(N(C)C(=O)Oc2cc3oc4cc5c(c(O)c4c(=O)c3c(CC=C(C)C)c2OC)C=CC(C)(C)O5)c1 | 18.96 | 59.1 | 43.7 | 8.38 | 
COc1c(OC(=O)N(C)c2ccccc2)cc2oc3c(CN4CCN(C)CC4)c4c(c(O)c3c(=O)c2c1CC=C(C)C)C=CC(C)(C)O4 |  |  |  |  | Activity (PC-12 [10]): Active
CCc1ccc(N(C)C(=O)Oc2cc3oc4cc5c(c(O)c4c(=O)c3c(CC=C(C)C)c2OC)C=CC(C)(C)O5)cc1 | 29.26 | 65.5 | 50.8 | 22.79 | 
COc1c(OC(=O)N(CC2CC2)c2ccccc2)cc2oc3cc4c(c(O)c3c(=O)c2c1CC=C(C)C)C=CC(C)(C)O4 | 53.91 | 74.2 | 68 | 42.11 | EC50 (PC-12 [5]): 29.2 µM; EC50 (PC-12 [6]): 20.9 µM
COc1c(OC(=O)N(C)c2ccccc2)cc2oc3cc4c(c(OCc5ccc(F)cc5)c3c(=O)c2c1CC=C(C)C)C=CC(C)(C)O4 | 0.01 | 65.5 | 31 | 22.59 | 
COc1c(OC(=O)N(C)c2ccc(F)cc2)cc2oc3cc4c(c(O)c3c(=O)c2c1CC=C(C)C)C=CC(C)(C)O4 | 52.82 | 74.7 | 67.2 | 43.32 | EC50 (PC-12 [5]): 28.8 µM; EC50 (PC-12 [6]): 21.3 µM
COc1c(OC(=O)N(C)c2cccc(Br)c2)cc2oc3cc4c(c(O)c3c(=O)c2c1CC=C(C)C)C=CC(C)(C)O4 | 3.74 | 57.7 | 33.1 | 5.11 | 
COc1ccccc1N(C)C(=O)Oc1cc2oc3cc4c(c(O)c3c(=O)c2c(CC=C(C)C)c1OC)C=CC(C)(C)O4 | 25.79 | 61.6 | 48.4 | 13.94 | 
COc1ccc(N(C)C(=O)Oc2cc3oc4cc5c(c(O)c4c(=O)c3c(CC=C(C)C)c2OC)C=CC(C)(C)O5)cc1 | 26.88 | 62.5 | 49.2 | 16 | 
COc1c(OC(=O)N(C)c2cccc(Cl)c2)cc2oc3cc4c(c(OC)c3c(=O)c2c1CC=C(C)C)C=CC(C)(C)O4 | 7.91 | 68 | 36 | 28.17 | 
CCN(C(=O)Oc1cc2oc3cc4c(c(O)c3c(=O)c2c(CC=C(C)C)c1OC)C=CC(C)(C)O4)c1ccccc1 | 38.13 | 65.1 | 57 | 21.74 | 
COc1c(OC(=O)N(C)c2cccc(C)c2)cc2oc3cc4c(c(O)c3c(=O)c2c1CC=C(C)C)C=CC(C)(C)O4 | 39.04 | 66.8 | 57.6 | 25.7 | 
CCCCC1OC(=O)c2ccccc21 (stereo not drawn) [RAC-3-N-BUTYLPHTHALIDE] |  |  |  |  | Activity (Rattus norvegicus [12]): 1.64%; Activity (Rattus norvegicus [13]): 82.2%; Activity (Rattus norvegicus [14]): 1.33
COc1c(OC(=O)N(C)c2ccccc2)cc2oc3cc4c(c(OCc5ccc(C(F)(F)F)cc5)c3c(=O)c2c1CC=C(C)C)C=CC(C)(C)O4 | 6.46 | 60.9 | 35 | 12.35 | 
COc1c(OC(=O)N(CC2CC2)c2ccc(C)cc2)cc2oc3cc4c(c(O)c3c(=O)c2c1CC=C(C)C)C=CC(C)(C)O4 | 48.26 | 69 | 64 | 30.57 | 
COc1cccc(N(C)C(=O)Oc2cc3oc4cc5c(c(O)c4c(=O)c3c(CC=C(C)C)c2OC)C=CC(C)(C)O5)c1 | 31.84 | 59.6 | 52.6 | 9.57 | 
COc1c(OC(=O)N(CC2CC2)c2cccc(F)c2)cc2oc3cc4c(c(O)c3c(=O)c2c1CC=C(C)C)C=CC(C)(C)O4 | 55.65 | 74.4 | 69.2 | 42.67 | EC50 (PC-12 [5]): 24.8 µM; EC50 (PC-12 [6]): 17.3 µM
CCc1cccc(N(C)C(=O)Oc2cc3oc4cc5c(c(O)c4c(=O)c3c(CC=C(C)C)c2OC)C=CC(C)(C)O5)c1 | 37.14 | 60.7 | 56.3 | 11.9 | 
